Source: patent US20260232682A1, “GSPT1 DEGRADER COMPOUNDS” (Captor Therapeutics S.A., priority 2023, published 2026)

How the values were obtained:
[1] = biological target: [CK1α]-[compound]-[CRBN/DDB1] ternary complex (Homo sapiens, UniProt P48729+Q96SW2); assay: AlphaLISA assay for off-target recruitment detection, CK1α; assay type: binding; details: 1 μM compound; normalized to FPFT-2216; read-out: Normalized ternary complex response, CK1α
How it was run: (§1)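 Neo-substrate with 40 μg/ml donor beads and 200 nM 6×His-CRBN/DDB1 with 40 μg/ml anti-His acceptor beads were each prepared in PBS pH 7.4 with Tween-20 and 1 mM DTT, preincubated 30 min at RT, then mixed. Compounds at 2% DMSO were incubated 30 min at 25 °C, read at 680/615 nm, and normalised between DMSO background and reference glue maximum.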

[2] = tested on: GSPT1-HiBiT HEK293 cells; assay: Cell Viability-CTG assay accompanying the Nano-Glo HiBiT assay; assay type: cell-based; details: 6 hours treatment, viability of GSPT1-HiBiT HEK293 cells
Experimental: In parallel, the Cell Viability-CTG assay was performed to ensure that the potential decrease of the luminescent signal observed in the Nano-Glo HiBiT assay is a result of protein degradation and not a result of decreasing cell viability. For CTG assay accompanying the Nano-Glo HiBiT assay, cells were cultured, seeded and treated as described above. After 6 hours of incubation (37° C., 5% CO2), plates were removed from the incubator and let to equilibrate to RT. Luminescent signal detection was conducted using the CellTiter-Glo Lumiescent Cell Viability Assay (Promega, cat. nr G7573). 10 μL of the Cell Titer Glo reagent was added per well, plates were shaken to facilitate lysis (460 rpm, 4 min, RT) and incubated in the dark for the following 8 min. Luminescence was read using the CLARIOstar multimode plate reader (BMG LABTECH). The raw data (the relative luminescence unit values, RLU) were uploaded under the relevant protocol and analysed in CDDVault data management platform, in a manner similar to the description above. The Mean Minimum values were calculated in CDDVault using non-linear regression and appropriate equations.

[3] = biological target: T1, [IKZF1 ZF2]-[compound]-[CRBN/DDB1] ternary complex (Homo sapiens, UniProt Q13422+Q96SW2); assay: AlphaLISA assay for off-target recruitment detection, IKZF1 ZF2; assay type: binding; details: 1 μM compound; normalized to Lenalidomide; read-out: Normalized ternary complex response, IKZF1 ZF2
T1 construct: IKZF1 ZF2
How it was run: as §1

[4] = biological target: T2, [GSPT1]-[compound of formula (I)]-[CRBN/DDB1] complex (Homo sapiens, UniProt P15170+Q96SW2); assay: AlphaLISA ternary complex formation assay (GSPT1); assay type: binding; details: 0.5 h; 1 μM compound; normalized to reference compound CC-885; read-out: Normalized AlphaLISA ternary complex average signal at 1 μM molecule
How it was run: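 Biotinylated GSPT1 on streptavidin donor beads and 6×His-CRBN/DDB1 on anti-His acceptor beads (each 200 nM before mixing) in HBS pH 7.4 with 0.1% Tween-20 and 1 mM DTT, 2% DMSO final, 30 min at 25 °C. AlphaLISA luminescence is normalized between DMSO background and the reference compound's maximum.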

[5] = biological target: T3, [IKZF2 ZF2]-[compound]-[CRBN/DDB1] ternary complex (Homo sapiens, UniProt Q96SW2+Q9UKS7); assay: AlphaLISA assay for off-target recruitment detection, IKZF2 ZF2; assay type: binding; details: 1 μM compound; normalized to Helios modulator; read-out: Normalized ternary complex response, IKZF2 ZF2
T3 construct: IKZF2 ZF2
How it was run: as §1

[6] = biological target: T2, [GSPT1]-[compound of formula (I)]-[CRBN/DDB1] complex; assay: HTRF ternary complex assay (GSPT1); assay type: binding; details: read-out: HTRF ternary complex Average pEC50 by molecule (converted)
How it was run: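 Compounds in dose-response were incubated 180 min at 25 °C with 48 nM GSPT1 and 52.8 nM 6×His-CRBN/DDB1, plus Streptavidin-Eu cryptate and anti-6×His-d2, in buffer with 1 mM DTT and 0.5% DMSO. TR-FRET (665/620) was normalized to DMSO background and fitted with a Hill slope model for EC50/pEC50.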

T3 sequence (Q9UKS7 140-162 limits assumed): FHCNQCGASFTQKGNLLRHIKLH
T3 sequence (Q96SW2 whole entry): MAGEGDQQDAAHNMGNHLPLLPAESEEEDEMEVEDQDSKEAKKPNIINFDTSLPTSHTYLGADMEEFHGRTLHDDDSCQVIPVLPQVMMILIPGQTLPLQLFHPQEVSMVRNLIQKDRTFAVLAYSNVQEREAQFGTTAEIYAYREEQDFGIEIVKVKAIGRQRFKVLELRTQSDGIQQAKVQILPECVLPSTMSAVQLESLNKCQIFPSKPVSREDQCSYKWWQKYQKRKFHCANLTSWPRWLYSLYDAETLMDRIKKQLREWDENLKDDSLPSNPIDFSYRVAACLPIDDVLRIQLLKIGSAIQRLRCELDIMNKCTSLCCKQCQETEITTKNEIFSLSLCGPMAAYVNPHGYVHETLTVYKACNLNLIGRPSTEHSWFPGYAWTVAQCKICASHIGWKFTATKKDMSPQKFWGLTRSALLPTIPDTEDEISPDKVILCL
T3 sequence (Q16531 whole entry partner): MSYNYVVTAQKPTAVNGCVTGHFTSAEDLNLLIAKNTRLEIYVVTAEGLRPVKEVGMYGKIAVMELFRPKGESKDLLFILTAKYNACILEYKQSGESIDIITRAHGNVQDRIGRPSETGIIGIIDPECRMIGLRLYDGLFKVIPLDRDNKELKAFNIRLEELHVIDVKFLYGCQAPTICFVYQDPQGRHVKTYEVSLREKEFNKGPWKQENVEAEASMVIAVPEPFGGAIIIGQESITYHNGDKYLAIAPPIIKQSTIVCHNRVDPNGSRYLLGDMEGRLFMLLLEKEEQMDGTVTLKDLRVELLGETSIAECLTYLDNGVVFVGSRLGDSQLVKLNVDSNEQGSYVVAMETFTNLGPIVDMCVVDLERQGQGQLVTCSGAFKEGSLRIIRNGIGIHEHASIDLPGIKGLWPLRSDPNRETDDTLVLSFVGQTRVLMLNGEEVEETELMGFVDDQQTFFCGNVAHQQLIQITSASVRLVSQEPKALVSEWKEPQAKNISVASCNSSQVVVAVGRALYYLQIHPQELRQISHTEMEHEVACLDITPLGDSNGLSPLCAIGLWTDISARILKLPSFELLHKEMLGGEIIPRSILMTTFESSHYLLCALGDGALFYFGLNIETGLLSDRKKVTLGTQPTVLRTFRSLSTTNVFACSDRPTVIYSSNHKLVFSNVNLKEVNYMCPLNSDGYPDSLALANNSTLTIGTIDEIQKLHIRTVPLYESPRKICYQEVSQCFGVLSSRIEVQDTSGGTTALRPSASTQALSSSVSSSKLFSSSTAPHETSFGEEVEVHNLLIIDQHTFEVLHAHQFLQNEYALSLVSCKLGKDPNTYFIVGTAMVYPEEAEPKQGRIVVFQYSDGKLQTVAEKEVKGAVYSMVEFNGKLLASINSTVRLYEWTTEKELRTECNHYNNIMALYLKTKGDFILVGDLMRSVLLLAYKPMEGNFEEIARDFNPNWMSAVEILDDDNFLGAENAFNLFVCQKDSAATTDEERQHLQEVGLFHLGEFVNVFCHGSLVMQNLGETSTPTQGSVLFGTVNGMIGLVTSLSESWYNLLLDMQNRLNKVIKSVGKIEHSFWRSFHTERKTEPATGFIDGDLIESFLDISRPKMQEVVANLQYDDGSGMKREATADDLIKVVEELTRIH
T1 sequence (Q13422 145-167 limits assumed): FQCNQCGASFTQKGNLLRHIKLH
T1 sequence (Q96SW2 whole entry): as the sequence (Q96SW2 whole entry) above
T1 sequence (Q16531 whole entry partner): as the sequence (Q16531 whole entry partner) above
[CK1α]-[compound]-[CRBN/DDB1] ternary complex, sequence (P48729 whole entry): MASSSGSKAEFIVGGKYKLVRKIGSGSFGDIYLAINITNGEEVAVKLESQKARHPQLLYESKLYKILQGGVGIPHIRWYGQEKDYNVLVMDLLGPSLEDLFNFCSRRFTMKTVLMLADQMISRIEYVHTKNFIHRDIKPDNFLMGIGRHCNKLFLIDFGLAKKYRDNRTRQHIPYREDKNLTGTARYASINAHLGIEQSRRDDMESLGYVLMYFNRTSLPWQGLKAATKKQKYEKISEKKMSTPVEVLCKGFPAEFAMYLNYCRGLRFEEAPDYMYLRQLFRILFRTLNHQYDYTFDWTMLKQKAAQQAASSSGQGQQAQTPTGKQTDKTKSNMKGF
[CK1α]-[compound]-[CRBN/DDB1] ternary complex, sequence (Q96SW2 whole entry): as the sequence (Q96SW2 whole entry) above
[CK1α]-[compound]-[CRBN/DDB1] ternary complex, sequence (Q16531 whole entry partner): as the sequence (Q16531 whole entry partner) above
T2 sequence (P15170 whole entry): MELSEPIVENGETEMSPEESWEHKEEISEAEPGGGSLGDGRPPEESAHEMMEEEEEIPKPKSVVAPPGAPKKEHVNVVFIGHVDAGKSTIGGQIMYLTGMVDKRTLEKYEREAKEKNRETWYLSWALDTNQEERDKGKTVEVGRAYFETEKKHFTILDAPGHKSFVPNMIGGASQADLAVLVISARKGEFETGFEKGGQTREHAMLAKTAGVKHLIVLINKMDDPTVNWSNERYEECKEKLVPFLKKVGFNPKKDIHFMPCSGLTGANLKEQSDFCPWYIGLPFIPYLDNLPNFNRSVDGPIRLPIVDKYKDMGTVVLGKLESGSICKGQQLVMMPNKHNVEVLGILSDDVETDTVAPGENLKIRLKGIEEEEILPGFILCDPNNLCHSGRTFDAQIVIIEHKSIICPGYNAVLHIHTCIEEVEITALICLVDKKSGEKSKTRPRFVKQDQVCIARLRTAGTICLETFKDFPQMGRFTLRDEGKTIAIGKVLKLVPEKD
T2 sequence (Q96SW2 whole entry): as the sequence (Q96SW2 whole entry) above
T2 sequence (Q16531 whole entry partner): as the sequence (Q16531 whole entry partner) above

Compound	activation at 1 µM [1]	activation at 1 µM [3]	activation at 1 µM [4]	activation at 1 µM [5]	EC50 [6]	CTG assay Mean minimum [2]
Cc1ccc(NC(=O)OCc2ccc3c(C)c(C4CCC(=O)NC4=O)c(C)nc3c2)cc1Cl (stereo not drawn) [Compound 44, (3-(2,6-dioxopiperidin-3-yl)-2,4-dimethylquinolin-7-yl)methyl (3-chloro-4-methylphenyl)carbamate]	< 10%	< 10%	10 to 50%	< 10%	< 316 nM	++++ (++++≥75% of viability of the HiBiT-GSPT1 HEK293 cells)
Cc1nc2cc(COC(=O)Nc3cccc(-c4ccccc4)c3)ccc2cc1C1CCC(=O)NC1=O (stereo not drawn) [Compound 46, (3-(2,6-dioxopiperidin-3-yl)-2-methylquinolin-7-yl)methyl [1,1′-biphenyl]-3-ylcarbamate]	< 10%	< 10%	10 to 50%	< 10%	316 to 3160 nM	++++ (++++≥75% of viability of the HiBiT-GSPT1 HEK293 cells)
Cc1ccc(NC(=O)OCc2cc3nc(C)c(C4CCC(=O)NC4=O)cc3cc2F)cc1Cl (stereo not drawn) [Compound 49, (3-(2,6-dioxopiperidin-3-yl)-6-fluoro-2-methylquinolin-7-yl)methyl (3-chloro-4-methylphenyl)carbamate]	< 10%	< 10%	10 to 50%	< 10%	316 to 3160 nM	++++ (++++≥75% of viability of the HiBiT-GSPT1 HEK293 cells)
Cc1ccc(NC(=O)OCc2ccc3cc(C4CCC(=O)NC4=O)c(C)nc3c2F)cc1Cl (stereo not drawn) [Compound 50, (3-(2,6-dioxopiperidin-3-yl)-8-fluoro-2-methylquinolin-7-yl)methyl (3-chloro-4-methylphenyl)carbamate]	< 10%	< 10%	> 50%	< 10%	316 to 3160 nM	++++ (++++≥75% of viability of the HiBiT-GSPT1 HEK293 cells)
Cc1ccc(NC(=O)NCc2ccc3nc(C)c(N4CCC(=O)NC4=O)cc3c2)cc1Cl [Compound 51, 1-(3-chloro-4-methylphenyl)-3-((3-(2,4-dioxotetrahydropyrimidin-1(2H)-yl)-2-methylquinolin-6-yl)methyl)urea]	< 10%	25 to 50%	10 to 50%	10 to 25%	< 316 nM	++++ (++++≥75% of viability of the HiBiT-GSPT1 HEK293 cells)
Cc1nc2cc(CNC(=O)Nc3cc(C(C)(C)C)no3)ccc2cc1N1CCC(=O)NC1=O [Compound 64, 1-(3-(tert-butyl)isoxazol-5-yl)-3-((3-(2,4-dioxotetrahydropyrimidin-1(2H)-yl)-2-methylquinolin-7-yl)methyl)urea]	< 10%	< 10%	10 to 50%	< 10%	< 316 nM	++++ (++++≥75% of viability of the HiBiT-GSPT1 HEK293 cells)
Cc1nc2ccc(COC(=O)Nc3cc(C(C)(C)C)no3)cc2cc1N1CCC(=O)NC1=O [Compound 66, (3-(2,4-dioxotetrahydropyrimidin-1(2H)-yl)-2-methylquinolin-6-yl)methyl (3-(tert-butyl)isoxazol-5-yl)carbamate]	10 to 25%	25 to 50%	> 50%	10 to 25%	316 to 3160 nM	++++ (++++≥75% of viability of the HiBiT-GSPT1 HEK293 cells)
Cc1nc2ccc(CNC(=O)Nc3cc(C(C)(C)C)no3)cc2cc1N1CCC(=O)NC1=O [Compound 67, 1-(3-(tert-butyl)isoxazol-5-yl)-3-((3-(2,4-dioxotetrahydropyrimidin-1(2H)-yl)-2-methylquinolin-6-yl)methyl)urea]	10 to 25%	≥ 50%	> 50%	25 to 50%	< 316 nM	++++ (++++≥75% of viability of the HiBiT-GSPT1 HEK293 cells)
Cc1nc2cc(COC(=O)Nc3cc(C(F)(F)F)n[nH]3)ccc2cc1C1CCC(=O)NC1=O (stereo not drawn) [Compound 69, (3-(2,6-dioxopiperidin-3-yl)-2-methylquinolin-7-yl)methyl (3-(trifluoromethyl)-1H-pyrazol-5-yl)carbamate]	< 10%	< 10%	> 50%	< 10%	316 to 3160 nM	++++ (++++≥75% of viability of the HiBiT-GSPT1 HEK293 cells)
Cc1nc2cc(COC(=O)Nc3cc(C(C)(C)C)on3)ccc2cc1C1CCC(=O)NC1=O (stereo not drawn) [Compound 70, (3-(2,6-dioxopiperidin-3-yl)-2-methylquinolin-7-yl)methyl (5-(tert-butyl)isoxazol-3-yl)carbamate]	< 10%	< 10%	> 50%	< 10%	< 316 nM	++++ (++++≥75% of viability of the HiBiT-GSPT1 HEK293 cells)

Second part, led by results:

activation at 1 µM [1]	activation at 1 µM [3]	activation at 1 µM [4]	activation at 1 µM [5]	EC50 [6]	Compound	CTG assay Mean minimum [2]
< 10%	< 10%	10 to 50%	< 10%	316 to 3160 nM	COc1ccc(NC(=O)OCc2ccc3cc(C4CCC(=O)NC4=O)c(C)nc3c2)nn1 (stereo not drawn) [Compound 45, (3-(2,6-dioxopiperidin-3-yl)-2-methylquinolin-7-yl)methyl (6-methoxypyridazin-3-yl)carbamate]	++++ (++++≥75% of viability of the HiBiT-GSPT1 HEK293 cells)
< 10%	< 10%	> 50%	< 10%	316 to 3160 nM	Cc1ccc(NC(=O)OCc2ccc3cc(C4CCC(=O)NC4=O)c(C)nc3c2)c(Cl)c1Cl (stereo not drawn) [Compound 54, (3-(2,6-dioxopiperidin-3-yl)-2-methylquinolin-7-yl)methyl (2,3-dichloro-4-methylphenyl)carbamate]	++++ (++++≥75% of viability of the HiBiT-GSPT1 HEK293 cells)
< 10%	< 10%	> 50%	< 10%	316 to 3160 nM	Cc1nc2cc(COC(=O)NC3CCC(C(C)(C)C)CC3)ccc2cc1C1CCC(=O)NC1=O (stereo not drawn) [Compound 55, (3-(2,6-dioxopiperidin-3-yl)-2-methylquinolin-7-yl)methyl (4-(tert-butyl)cyclohexyl)carbamate]	++++ (++++≥75% of viability of the HiBiT-GSPT1 HEK293 cells)
< 10%	< 10%	> 50%	< 10%	316 to 3160 nM	Cc1ncc(NC(=O)OCc2ccc3cc(C4CCC(=O)NC4=O)c(C)nc3c2)cc1Cl (stereo not drawn) [Compound 58, (3-(2,6-dioxopiperidin-3-yl)-2-methylquinolin-7-yl)methyl (5-chloro-6-methylpyridin-3-yl)carbamate]	++++ (++++≥75% of viability of the HiBiT-GSPT1 HEK293 cells)
< 10%	< 10%	> 50%	< 10%	< 316 nM	COc1cnc(NC(=O)OCc2ccc3cc(C4CCC(=O)NC4=O)c(C)nc3c2)cn1 (stereo not drawn) [Compound 59, (3-(2,6-dioxopiperidin-3-yl)-2-methylquinolin-7-yl)methyl (5-methoxypyrazin-2-yl)carbamate]	++++ (++++≥75% of viability of the HiBiT-GSPT1 HEK293 cells)
